# Like-named read-outs stand apart in the source and are kept apart here.
# Key:
# [1] = test system: full NCI 60 cell panel; test: NCI 60 cell panel SRB screen, whole panel; format: cell-based, human; details: for activity at 10 µM / inhibition at 10 µM: Homo sapiens, 60 cell; for activity at 10 µM: mean over the panel, single dose 10 μM, read-out: Mean percent cell growth promotion
# Text: Aiming to evaluate the general antitumour activity of the synthesised phthalazines, the structures of the final compounds were submitted to National Cancer Institute “NCI” (www.dtp.nci.nih.gov), Bethesda, Maryland, USA. In vitro NCI anticancer screening involves two-stage process, the first stage started with the evaluation of the selected candidates against the full NCI 60 cell lines panel representing leukaemia, non-small cell lung cancer, melanoma, colon, CNS, breast, ovarian, renal and prostate cancers at a single dose of 10 µM. NCI selection is based on degree of structure variation and application of computer modelling techniques to prioritise compounds based on their ability to add diversity to the NCI small molecule compound collection.
# Eight compounds (6b, 6e, 7b, 13a, 13c, 16a, 16d and 17a) were selected by NCI for further 5 log dose screening against full NCI 60 cell panel. All the 60 cell lines, representing nine tumour subpanels (leukaemia, non-small cell lung cancer, colon cancer, CNS cancer, prostate cancer, melanoma, ovarian cancer, renal cancer and breast cancer) which were incubated at five different concentrations (0.01, 0.1, 1, 10 and 100 µM) of each of the test compounds. The outcomes were used to create log concentration vs % growth inhibition curves, then three response parameters (GI50, TGI and LC50) were calculated for each cell line, (Tables S4 and S5 in Supplementary material).
# The human tumor cell lines of the cancer-screening panel were grown in RPMI 1640 medium containing 5% fetal bovine serum and […] L-glutamine. For a typical screening experiment, cells are inoculated into 96 well microtiter plates in 100 ml at plating densities ranging from 5000 to 40,000 cells/well depending on the doubling time of individual cell lines. After cell inoculation, the microtiter plates are incubated at 37 °C, 5% CO2, 95% air and 100%
# relative humidity for 24 h prior to addition of experimental drugs. After 24 h, two plates of each cell line are fixed in situ with TCA, to represent a measurement of the cell population for each cell line at the time of drug addition (Tz). Experimental drugs are dissolved in dimethyl sulfoxide at 400-fold the desired final maximum test concentration and stored frozen prior to use. At the time of drug addition, an aliquot of frozen concentrate is thawed and diluted to twice the desired final maximum test concentration with complete medium containing […] Gentamicin. Additional four, 10-fold or ½log serial dilutions are made to provide a total of five drug concentrations plus control. Aliquots of […] of these different drug dilutions are added to the appropriate microtiter wells already containing 100 ml of medium, resulting in the required final drug concentrations. Following drug addition, the plates are incubated for an additional 48 h at 37 °C, 5% CO2, 95% air, and 100% relative humidity. For adherent cells, the assay is terminated by the addition of cold TCA. Cells are fixed in situ by the gentle addition of […] of cold 50% (w/v) TCA (final concentration,10% TCA) and incubated for 60 min at 4 °C. The supernatant is discarded, and the plates are washed five times with tap water and air dried. Sulforhodamine B (SRB) solution (100 ml) at 0.4% (w/v) in 1% acetic acid is added to each well, and plates are incubated for 10 min at room temperature. After staining, unbound dye is removed by washing five times with 1% acetic acid and the plates are air dried. Bound stain is subsequently dissolved with 10 μM trizma base, and the absorbance is read on an automated plate reader at a wavelength of 515 nm. For suspension cells, the methodology is the same except that the assay is terminated by fixing settled cells at the bottom of the wells by gently adding […] of 80% TCA (final concentration, 16% TCA). […]
# [2] = test system: EKVX; test: NCI 60 cell panel SRB screen; format: cell-based, human; details: for GI50 / IC (TGI) / LC50: Homo sapiens, 5 log dose; for LC50: 48 h
# [3] = test system: A498; test: NCI 60 cell panel SRB screen; format: cell-based; details: Homo sapiens; for GI50 / IC (TGI) / CC50: A498, 5 log dose; for CC50: 48 h, read-out: LC50 (the source's name); for activity at 10 µM: A498, single dose 10 μM, read-out: percent cell growth promotion
# [4] = test system: UO-31; test: NCI 60 cell panel SRB screen; format: cell-based; details: Homo sapiens; for GI50 / IC (TGI) / CC50: UO-31, 5 log dose; for CC50: 48 h, read-out: LC50 (the source's name); for activity at 10 µM: UO-31, single dose 10 μM, read-out: percent cell growth promotion
# [5] = test system: NCI-H322M; test: NCI 60 cell panel SRB screen; format: cell-based; details: Homo sapiens; for GI50 / IC (TGI) / CC50: 5 log dose; for CC50: 48 h, read-out: LC50 (the source's name); for activity at 10 µM: single dose 10 μM, read-out: percent cell growth promotion
# [6] = test system: HCT-15; test: NCI 60 cell panel SRB screen; format: cell-based; details: Homo sapiens; for GI50 / IC (TGI) / CC50: HCT-15, 5 log dose; for CC50: 48 h, read-out: LC50 (the source's name); for activity at 10 µM: HCT-15, single dose 10 μM, read-out: percent cell growth promotion
# [7] = test system: SF-539; test: NCI 60 cell panel SRB screen; format: cell-based, human; details: for GI50 / IC (TGI) / CC50: Homo sapiens, SF-539, 5 log dose; for CC50: 48 h, read-out: LC50 (the source's name)
# [8] = test system: 786-0; test: NCI 60 cell panel SRB screen; format: cell-based; details: Homo sapiens; for GI50 / IC (TGI) / CC50: 786-0, 5 log dose; for CC50: 48 h, read-out: LC50 (the source's name); for activity at 10 µM: 786-0, single dose 10 μM, read-out: percent cell growth promotion
# [9] = test system: OVCAR-4; test: NCI 60 cell panel SRB screen; format: cell-based; details: Homo sapiens; for GI50 / IC (TGI) / CC50: OVCAR-4, 5 log dose; for CC50: 48 h, read-out: LC50 (the source's name); for activity at 10 µM: OVCAR-4, single dose 10 μM, read-out: percent cell growth promotion
# [10] = test system: UACC-62; test: NCI 60 cell panel SRB screen; format: cell-based; details: for GI50 / activity at 10 µM / CC50: Homo sapiens; for GI50: UACC-62; for activity at 10 µM: UACC-62, read-out: percent cell growth promotion; for CC50 / TGI: UACC-62, 5 log dose; for CC50: 48 h, read-out: LC50 (the source's name)
# [11] = test system: SK-MEL-2; test: NCI 60 cell panel SRB screen; format: cell-based; details: for GI50 / IC (TGI) / CC50: Homo sapiens; for IC (TGI): read-out: TGI; for CC50: SK-MEL-2, 5 log dose, 48 h, read-out: LC50 (the source's name)
# [12] = test system: SF-295; test: NCI 60 cell panel SRB screen; format: cell-based; details: Homo sapiens; for GI50 / IC (TGI) / CC50: SF-295, 5 log dose; for CC50: 48 h, read-out: LC50 (the source's name); for activity at 10 µM: SF-295, single dose 10 μM, read-out: percent cell growth promotion
# [13] = test system: COLO 205; test: NCI 60 cell panel SRB screen; format: cell-based; details: Homo sapiens; for GI50 / IC (TGI) / CC50: COLO 205, 5 log dose; for CC50: 48 h, read-out: LC50 (the source's name); for activity at 10 µM: COLO 205, single dose 10 μM, read-out: percent cell growth promotion
# [14] = test system: full NCI 60 cell panel; test: NCI 60 cell panel SRB screen, whole panel; format: cell-based, human; details: Homo sapiens, 60 cell, NCI 5-log dose, full 60 cell panel; read-out: GI50 values, range over the tested cell lines
# [15] = single dose 10 µM, read-out: cell growth inhibition against various cell lines
structure (smiles),measurement,setting,value
"COc1cccc(NCc2nnc(Nc3ccc(Cl)cc3)c3ccccc23)c1 [Compound 16d, N-(4-Chlorophenyl)-4-((3-methoxyphenylamino)methyl)phthalazin-1-amine]",activity at 10 µM,[1],-16%
same,inhibition at 10 µM,"[1]; single dose 10 µM, full panel, read-out: mean growth inhibition",116%
same,inhibition at 10 µM,[1]; [15],> 90%
same,GI50,[2],0.58 µM
same,IC (TGI),[2],6.4 µM
same,LC50,[2],> 25 µM
same,percent cell growth promotion,[2]; single dose 10 μM,-0.28%
same,GI50,[3],1.27 µM
same,IC (TGI),[3],4.42 µM
same,CC50,[3],11.5 µM
same,activity at 10 µM,[3],-26.8%
same,GI50,[4],0.6 µM
same,IC (TGI),[4],5.28 µM
same,CC50,[4],> 25 µM
same,activity at 10 µM,[4],-42.5%
same,GI50,[5],1.4 µM
same,IC (TGI),[5],7.85 µM
same,CC50,[5],> 25 µM
same,activity at 10 µM,[5],3.32%
same,GI50,[6],1.78 µM
same,IC (TGI),[6],7.56 µM
same,CC50,[6],> 25 µM
same,activity at 10 µM,[6],-18.1%
same,GI50,[7],3.07 µM
same,IC (TGI),[7],6.56 µM
same,CC50,[7],14 µM
same,percent cell growth promotion,"[7]; SF-539, single dose 10 μM",-10.19%
same,GI50,[8],2.22 µM
same,IC (TGI),[8],7.63 µM
same,CC50,[8],24.4 µM
same,activity at 10 µM,[8],-5.76%
same,GI50,[9],1.33 µM
same,IC (TGI),[9],17.6 µM
same,CC50,[9],> 25 µM
same,activity at 10 µM,[9],17.2%
same,GI50,[10],1 µM
same,activity at 10 µM,[10],-29.2%
same,CC50,[10],20.1 µM
same,TGI,[10],5.76 µM
same,GI50,[11],0.7 µM
same,IC (TGI),[11],3.98 µM
same,CC50,[11],11 µM
same,percent cell growth promotion,"[11]; SK-MEL-2, single dose 10 μM",-34.44%
same,GI50,[12],1.94 µM
same,IC (TGI),[12],8.24 µM
same,CC50,[12],> 25 µM
same,activity at 10 µM,[12],-22.6%
same,GI50,[13],0.49 µM
same,IC (TGI),[13],4.01 µM
same,CC50,[13],15.4 µM
same,activity at 10 µM,[13],-22.2%
same,GI50,[14],0.15 to 8.41 µM
"Cc1nnc(Nc2ccc(NC(=O)Nc3ccc(Cl)cc3)cc2)c2ccccc12 [Compound 6e, 1–(4-Chlorophenyl)-3–(4-(4-methylphthalazin-1-ylamino)phenyl)urea]",activity at 10 µM,[1],23.2%
same,inhibition at 10 µM,[1]; [15],> 90%
same,"cell growth inhibition, in words",[1]; single dose 10 µM,"lethal effect (above 100% inhibition) against several leukaemia, melanoma, renal cancer cell lines"
same,GI50,[2],3.47 µM
same,IC (TGI),[2],17.9 µM
same,LC50,[2],87.8 µM
same,GI50,[3],3.21 µM
same,IC (TGI),[3],10.5 µM
same,CC50,[3],38.5 µM
same,activity at 10 µM,[3],35.4%
same,GI50,[4],2.14 µM
same,IC (TGI),[4],6.01 µM
same,CC50,[4],31.8 µM
same,activity at 10 µM,[4],51.2%
same,GI50,[5],3.31 µM
same,IC (TGI),[5],1.25 µM
same,CC50,[5],69.5 µM
same,activity at 10 µM,[5],47.8%
same,GI50,[6],1.91 µM
same,IC (TGI),[6],4.53 µM
same,CC50,[6],13.9 µM
same,activity at 10 µM,[6],6.39%
same,GI50,[7],1.61 µM
same,IC (TGI),[7],3.32 µM
same,CC50,[7],6.83 µM
same,GI50,[8],1.71 µM
same,IC (TGI),[8],3.34 µM
same,CC50,[8],6.55 µM
same,activity at 10 µM,[8],-27.9%
same,GI50,[9],2.79 µM
same,IC (TGI),[9],8.36 µM
same,CC50,[9],58.2 µM
same,activity at 10 µM,[9],42.6%
same,GI50,[10],1.75 µM
same,activity at 10 µM,[10],-34.4%
same,CC50,[10],7.35 µM
same,TGI,[10],3.59 µM
same,GI50,[11],2.22 µM
same,IC (TGI),[11],4.59 µM
same,CC50,[11],9.5 µM
same,GI50,[12],2.04 µM
same,IC (TGI),[12],4.21 µM
same,CC50,[12],8.68 µM
same,activity at 10 µM,[12],4.8%
same,GI50,[13],2.22 µM
same,IC (TGI),[13],5.29 µM
same,CC50,[13],19.2 µM
same,activity at 10 µM,[13],28.2%
same,GI50,[14],0.15 to 8.41 µM

# Reference: paper PMC6691788, “Design and synthesis of phthalazine-based compounds as potent anticancer agents with potential antiangiogenic activity via VEGFR-2 inhibition” (Journal of Enzyme Inhibition and Medicinal Chemistry, 2019)
